Patent publication US20230061201A1, “COMPOSITION FOR PREVENTING OR TREATING CHRONIC OBSTRUCTIVE PULMONARYDISEASE COMPRISING REGORAFENIB AS ACTIVE INGREDIENT” (Chungbuk National University Industry-Academic Cooperation …, priority 2021, published 2023)

Legend:
Assay type in all cases: in vivo, C57BL/6 mice
[1] = tested on: mouse animal model with emphysema induced by porcine pancreatic elastase (PPE); experiment: Alveolar size (mean linear intercept, Lm) in PPE-induced emphysema mice; conditions: regorafenib 5 mg/kg oral for one week from two weeks after PPE 5U nasal; lungs on week 3, H&E
Description: One of the pathological indicators of chronic obstructive pulmonary disease is changed alveolar size. Changes in the alveolar size can be analyzed by quantifying the mean linear intercept (Lm) value, representing the average distance between the alveolar walls, in a microscopic field of view. When chronic obstructive pulmonary disease is induced, this value increases, indicating an increase in the alveolar size.
Therefore, the present inventors analyzed whether it is possible to alleviate changes in lung structure by measuring the change in Lm value due to treatment with regorafenib in a mouse animal model with emphysema, a chronic obstructive pulmonary disease, prepared over three weeks through administration of PPE (FIG. 2A).
Specifically, 6-week-old C57BL/6 mice were acclimatized for one week, after which the acclimatized 7-week-old mice (average 25 g) were subjected to nasal administration with saline and PPE [elastase from porcine pancreas] (EPC, EC134) at a concentration of 5U. […] The prepared block was cut using a sectioning machine, attached to a slide, subjected to H&E staining, and then quantified by measuring the Lm value based on microscopic images.

[2] = tested on: mouse animal model with emphysema induced by porcine pancreatic elastase (PPE); experiment: Immune cells in bronchoalveolar lavage fluid of PPE-induced emphysema mice; conditions: BAL fluid day 4
Description: The present inventors performed an experiment to determine whether regorafenib has activity capable of treating chronic obstructive pulmonary disease. The initial response induced by PPE (porcine pancreatic elastase) representatively includes immune responses that occur in damaged lung tissue. The activated immune response promotes the proliferation of various immune cells and the secretion of various inflammatory mediators. Specifically, the overall number of immune cells increases with an increase in individual immune cells involved in the immune response. In particular, an increase in the numbers of macrophages, lymphocytes, eosinophils, and neutrophils is observed. The increase in the number of these cells can be confirmed through a bronchoalveolar lavage (BAL) fluid test.
Therefore, in the present invention, mice with chronic obstructive pulmonary disease, particularly emphysema, in which alveolar damage was induced by reducing elastin content using PPE, were prepared and then treated with regorafenib to thus analyze whether chronic obstructive pulmonary disease was ameliorated. Specifically, 6-week-old C57BL/6 mice were purchased and acclimatized for one week. Thereafter, the acclimatized 7-week-old mice (average 25 g) were orally administered with 200 µl of regorafenib (SelleckChem, BAY 73-4506) at a concentration of 5 mg/kg. […] The stained slide was analyzed and quantified using a microscope.
According to the method described above, a mouse animal model of chronic obstructive pulmonary disease was prepared by administering the mouse lungs with 5U of PPE, and in order to verify whether the immune response was modulated, one day before administration of PPE and on days 2 and 3 after administration of PPE, regorafenib (5 mg/kg) was administered thereto, and on day 4, bronchoalveolar lavage fluid was obtained and the immune cells therein were stained to thus quantitatively analyze the type of immune cells and the number of individual cells. […]

[3] = tested on: mouse animal model with emphysema induced by porcine pancreatic elastase (PPE); experiment: Lung function (flexiVent) in PPE-induced emphysema mice; conditions: regorafenib 5 mg/kg oral for one week from two weeks after PPE 5U nasal; flexiVent on week 3
Description: In addition, the present inventors performed an experiment to determine whether regorafenib is able to restore lost function of damaged lungs in order to confirm whether regorafenib is able to treat chronic obstructive pulmonary disease.
Specifically, 6-week-old C57BL/6 mice were purchased and acclimatized for one week, after which the acclimatized 7-week-old mice (average 25 g) were subjected to nasal administration with saline and PPE [elastase from porcine pancreas] (EPC, EC134) at a concentration of 5U. Two weeks after administration, the mice were orally administered with 200 µl of regorafenib (SelleckChem, BAY 73-4506) at a concentration of 5 mg/kg for one week. Then, the mice were anesthetized using 300 µl of anesthetic on week 3, after which the lung function of each mouse was measured using a flexiVent (system for measuring the function of lungs) and quantified by subtracting the error value therefrom.

CNC(=O)c1cc(Oc2ccc(NC(=O)Nc3ccc(Cl)c(C(F)(F)F)c3)c(F)c2)ccn1 [regorafenib]
decrease of Lm value compared to the PPE treatment group [1]: about 50% | numbers of eosinophils ([2]; regorafenib 5 mg/kg oral): significantly decreased | numbers of neutrophils ([2]; regorafenib 5 mg/kg oral): significantly decreased | decrease of the number of immune cells increased due to PPE ([2]; regorafenib 5 mg/kg oral one day before and on days 2 and 3 after PPE 5U nasal): about 50% | lung function indicators [3]: restored
